Data: US9353096B2, “Substituted phenylcarbamate compounds” (Hoffmann-La Roche Inc., priority 2012, dated 2016)
Counter-ions that a name gives are not always drawn.

The compounds below were run against hTRPA1 (Homo sapiens, UniProt O75762) (assay: Dose response calcium flux (FLIPR) assay, ChanTest hTRPA1-CHO stably transfected cell line, cinnamaldehyde agonist). Conditions: CHO-K1 Tet-On hTRPA1 cells, 100 uM cinnamaldehyde agonist, 30 min preincubation.
Type: cell-based
Experimental: Dose Response Assay:ChanTest hTRPA1-CHO Stably Transfected Cell Line
CHO-K1 Tet-On_HOMSA_TRPA1_Clone_20
Growth Media for CHO-K1 Tet-On_HOMSA_TRPA1_Clone_20 • Ham's F-12 with 10% tetracycline-free FBS • 1× penicillin-streptomycin • 1× glutamax • 0.01 mg/ml Blasticidin • 0.40 mg/ml Zeocin • The cell line doubling rate was ˜15 h. […] Experiments were run at 24 h post induction.
Plating Conditions CHOK1/TRPA1 Cells: • Harvested cells with 0.025% trypsin/EDTA. • Resuspended cells in growth media without selection antibiotics. • Measured cell density and diluted to 2.4×10^5 cells/ml in media containing 1 ug/ml Doxycycline Plate 25 ul/well into 384 well black/clear tissue culture-treated plates. • Incubated overnight at 37° C.
Replacement Buffer: Hank's Balanced Salt Solution, 20 mM HEPES along with 0.005% BSA and 2× Probenecid
Dye Loading Buffer: Cal-3 NW Calcium dye was prepared by dissolving the contents of one vial with […] Hank's Balanced Salt Solution containing 20 mM HEPES.
AP-18, stock 10 mM, prepare 3.5× compound dilution in a Compound Buffer (HBSS/20 mM HEPES/0.005% BSA)—final concentration 10 uM.
Preparation of Cinnamaldehyde (Agonist Addition): • FW=132.16 • Specific gravity=1.046 gm/cc • 1.32 gm/1.046 gm/cc=1.26 ml of stock • Add 1.74 ml DMSO=3.3 M stock • Working solution 4.5× (final 100 uM in Compound Buffer: HBSS/20 mM HEPES/0.005% BSA)
Compounds dilutions were prepared from 5 or 10 mM stock (100% DMSO): • Adjustments of volumes and concentrations were made at time of titration to reflect desired final assay concentrations. • Compounds were tested at either 20 μM three folds dilution 11 steps out or 30 μM two folds dilution 11 steps out. • 3 μl of diluted compound were transferred into Weidmann 384-well plate in duplicates side-by-side. • Compound plates were resuspended with 100 ul of HBSS/20 mM HEPES/0.005% BSA buffer (Compound Buffer): • column 1A-H: buffer/DMSO (bk) • column 2A-H: AP-18 (control antagonist for CHOK1 TRPA1 cells) • column 1I-P: ATP (control for CHOK1 teton cells) • column 2I-P: 2APB (control antagonist for CHOK1/TRPM8 cells).
Growth media was removed from the cell plates (20 ul) and 20 μl of the Replacement Buffer was added followed by addition of 25 μl of diluted dye. All three steps were performed using a Plate Washer BioTek 407. The plates were then incubated for 30′ at RT.
After incubation, both the cell and compound plates were brought to the FLIPR and 20 μl of the diluted compounds/antagonist/bk were transferred to the cell plates by the FLIPR. Plates were then incubated for 30′ at room temperature. After 30′ incubation, plates were returned to the FLIPR and 20 μl of 4.5× Cinnamaldehyde was added to the cell plates. During the compound addition as well as agonist addition, fluorescence readings were taken simultaneously from all 384 wells of the cell plate every 1.5 seconds. Five readings were taken to establish a stable baseline, then 20 μl of sample was rapidly (30 ul/sec) and simultaneously added to each well of the cell plate. The fluorescence was continuously monitored before, during and after sample/agonist addition for a total elapsed time of 100 seconds (compound addition) and 120 seconds (agonist addition). Responses (increase in peak fluorescence) in each well following agonist addition was determined. The initial fluorescence reading from each well, prior to ligand stimulation, was used a zero baseline value for the data from that well.

Sequence of hTRPA1 (O75762 whole entry): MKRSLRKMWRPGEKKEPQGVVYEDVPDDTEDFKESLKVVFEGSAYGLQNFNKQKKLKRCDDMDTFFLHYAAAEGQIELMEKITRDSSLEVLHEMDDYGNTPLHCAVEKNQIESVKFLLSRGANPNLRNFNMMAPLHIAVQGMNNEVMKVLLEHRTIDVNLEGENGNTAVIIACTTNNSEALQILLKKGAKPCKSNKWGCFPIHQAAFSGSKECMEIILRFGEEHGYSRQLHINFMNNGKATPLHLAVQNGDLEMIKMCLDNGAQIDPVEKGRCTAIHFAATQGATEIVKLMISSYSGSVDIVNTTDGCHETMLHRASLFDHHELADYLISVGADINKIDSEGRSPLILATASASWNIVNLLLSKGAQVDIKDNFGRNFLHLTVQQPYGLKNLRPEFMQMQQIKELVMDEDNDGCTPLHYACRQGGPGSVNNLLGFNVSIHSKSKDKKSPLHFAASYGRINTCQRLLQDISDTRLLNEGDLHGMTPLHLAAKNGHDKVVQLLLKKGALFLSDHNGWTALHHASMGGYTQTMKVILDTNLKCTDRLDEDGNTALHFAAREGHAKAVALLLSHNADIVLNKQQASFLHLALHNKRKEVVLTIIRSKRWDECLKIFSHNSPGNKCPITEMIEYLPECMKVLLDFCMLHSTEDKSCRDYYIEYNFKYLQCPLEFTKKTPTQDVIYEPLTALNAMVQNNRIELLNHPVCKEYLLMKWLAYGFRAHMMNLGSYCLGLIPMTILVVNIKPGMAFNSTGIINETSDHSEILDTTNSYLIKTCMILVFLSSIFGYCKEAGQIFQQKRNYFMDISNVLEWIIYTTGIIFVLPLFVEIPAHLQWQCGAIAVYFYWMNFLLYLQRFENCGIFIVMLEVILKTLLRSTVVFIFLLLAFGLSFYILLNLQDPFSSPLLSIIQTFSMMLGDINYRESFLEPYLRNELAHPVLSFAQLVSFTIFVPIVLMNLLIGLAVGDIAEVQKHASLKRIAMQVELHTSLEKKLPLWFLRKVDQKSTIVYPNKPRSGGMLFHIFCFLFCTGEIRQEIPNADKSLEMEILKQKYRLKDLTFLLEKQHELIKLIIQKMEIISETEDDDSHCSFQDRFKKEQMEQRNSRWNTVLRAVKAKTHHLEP

Structure (SMILES)	IC50
O=C(Nc1ccc(Cl)cc1)O[C@@H](CN1CCO[C@H](Cc2ccccc2)C1)C(F)(F)F [Example 9, (4-Chlorophenyl)-carbamic acid (S)-1-((R)-2-benzyl-morpholin-4-ylmethyl)-2,2,2-trifluoroethyl ester hydrochloride]	121 nM
COc1cccc([C@@H]2CN(C[C@H](OC(=O)Nc3ccc(Cl)cc3)C(F)(F)F)CCS2(=O)=O)c1 [Example 16, (4-Chlorophenyl)-carbamic acid (S)-2,2,2-trifluoro-1-[(R)-2-(3-methoxyphenyl)-1,1-dioxo-1λ^6-thiomorpholin-4-ylmethyl]ethyl ester]	152 nM
O=C(Nc1ccc(Cl)c(F)c1)O[C@@H](CN1CCS(=O)(=O)[C@@H](c2cccc(C(F)(F)F)c2)C1)C(F)(F)F (single isomer, unassigned) [Example 21]	1100 nM
COc1cccc(C[C@@H]2CN(C[C@H](OC(=O)Nc3ccc(Cl)cc3)C(F)(F)F)CCO2)n1 [Example 51, (4-Chlorophenyl)-carbamic acid (S)-2,2,2-trifluoro-1-[(R)-2-(6-methoxy-pyridin-2-ylmethyl)-morpholin-4-ylmethyl]ethyl ester]	398 nM
O=C(Nc1ccc(Cl)cc1)O[C@@H](CN1CCO[C@@H](c2cccc(C(F)(F)F)c2)C1)C(F)(F)F [Example 12, (4-Chlorophenyl)-carbamic acid (S)-2,2,2-trifluoro-1-[(S)-2-(3-trifluoromethylphenyl)-morpholin-4-ylmethyl]-ethyl ester hydrochloride]	108 nM
CN1CCN(C[C@H](OC(=O)Nc2ccc(Cl)cc2)C(F)(F)F)CC1c1ccccc1 (stereo partly drawn) [Example 27, (4-Chlorophenyl)-carbamic acid (S)-2,2,2-trifluoro-1-(4-methyl-3-phenylpiperazin-1-ylmethyl)-ethyl ester hydrochloride]	2620 nM
COc1cccc(C2CN(C[C@H](OC(=O)Nc3ccc(Cl)cc3)C(F)(F)F)CCS2(=O)=O)c1 (stereo partly drawn) [Example 17, (4-Chlorophenyl)-carbamic acid (S)-2,2,2-trifluoro-1-[2-(3-methoxyphenyl)-1,1-dioxo-1λ^6-thiomorpholin-4-ylmethyl]-ethyl ester]	390 nM
O=C(Nc1ccc(Cl)cc1)O[C@@H](CN1CCS(=O)(=O)CC1)C(F)(F)F [Example 48, (4-Chlorophenyl)-carbamic acid (S)-1-(1,1-dioxo-1λ^6-thiomorpholin-4-ylmethyl)-2,2,2-trifluoroethyl ester hydrochloride]	3560 nM
Cc1ccc(NC(=O)O[C@@H](CN2CCOC(c3ccc(C(F)(F)F)cc3)C2)C(F)(F)F)cc1Cl (stereo partly drawn) [Example 33, (3-Chloro-4-methylphenyl)-carbamic acid (S)-2,2,2-trifluoro-1-[2-(4-trifluoromethylphenyl)-morpholin-4-ylmethyl]-ethyl ester hydrochloride]	1630 nM
O=C(Nc1ccc(Cl)cc1)O[C@@H](CN1CCS(=O)(=O)[C@@H](c2cccc(C(F)(F)F)c2)C1)C(F)(F)F (single isomer, unassigned) [Example 19]	191 nM
Cc1ccc(NC(=O)O[C@@H](CN2CCOC(c3ccc(F)c(F)c3)C2)C(F)(F)F)cc1 (stereo partly drawn) [Example 37, p-Tolylcarbamic acid (S)-1-[2-(3,4-difluorophenyl)-morpholin-4-ylmethyl]-2,2,2-trifluoroethyl ester hydrochloride]	458 nM
O=C(Nc1ccc(Cl)cc1)OC(CN1CCOCC1)C(F)(F)F (centres unmarked) [Example 41, (4-Chlorophenyl)-carbamic acid 2,2,2-trifluoro-1-morpholin-4-ylmethyl-ethyl ester]	2140 nM
O=C(Nc1ccc(Cl)cc1)O[C@@H](CN1CCO[C@@H](c2ccc(C(F)(F)F)cc2)C1)C(F)(F)F (single isomer, unassigned) [Example 30, hydrochloride]	198 nM

Compounds with a lower IC50, results first:

IC50	Structure (SMILES)
73.8 nM	O=C(C[C@@H](CN1CCO[C@H](c2cccc(C(F)(F)F)c2)C1)C(F)(F)F)Nc1ccc(Cl)c(F)c1 [Example 39, (S)—N-(4-chloro-3-fluorophenyl)-4,4,4-trifluoro-3-[(R)-2-(3-trifluoromethylphenyl)-morpholin-4-ylmethyl]-butyramide]
64.3 nM	O=C(Nc1ccc(Cl)c(F)c1)O[C@@H](CN1CCO[C@H](c2ccc(C(F)(F)F)nc2)C1)C(F)(F)F [Example 22, (4-Chloro-3-fluorophenyl)-carbamic acid (S)-2,2,2-trifluoro-1-[(R)-2-(6-trifluoromethyl-pyridin-3-yl)-morpholin-4-ylmethyl]-ethyl ester]
47 nM	O=C(Nc1ccc(Cl)c(F)c1)O[C@@H](CN1CCO[C@H](c2cccc(Cl)c2)C1)C(F)(F)F [Example 7, (4-Chloro-3-fluorophenyl)-carbamic acid (S)-1-[(R)-2-(3-chlorophenyl)-morpholin-4-ylmethyl]-2,2,2-trifluoroethyl ester hydrochloride]
37.6 nM	O=C(Nc1ccc(Cl)c(F)c1)O[C@@H](CN1CCO[C@H](c2ccc(F)c(F)c2)C1)C(F)(F)F [Example 34, (4-Chloro-3-fluorophenyl)-carbamic acid (S)-1-[(R)-2-(3,4-difluorophenyl)-morpholin-4-ylmethyl]-2,2,2-trifluoroethyl ester hydrochloride]
30.7 nM	O=C(Nc1ccc(Cl)c(F)c1)O[C@@H](CN1CCO[C@H](c2ccc(F)c(Cl)c2)C1)C(F)(F)F [Example 5, (4-Chloro-3-fluorophenyl)-carbamic acid (S)-1-[(R)-2-(3-chloro-4-fluorophenyl)-morpholin-4-ylmethyl]-2,2,2-trifluoroethyl ester hydrochloride]
17.8 nM	O=C(Nc1ccc(Cl)cc1)O[C@@H](CN1CCOC(c2cccc(Cl)c2)C1)C(F)(F)F (stereo partly drawn) [Example 43, (4-Chlorophenyl)-carbamic acid (S)-2,2,2-trifluoro-1-[2-(3-chlorophenyl)-morpholin-4-ylmethyl]-ethyl ester hydrochloride]
14.3 nM	O=C(Nc1ccc(Cl)c(F)c1)O[C@@H](CN1CCO[C@H](c2ccc(F)c(C(F)(F)F)c2)C1)C(F)(F)F [Example 3, (4-Chloro-3-fluorophenyl)-carbamic acid (S)-2,2,2-trifluoro-1-[(R)-2-(4-fluoro-3-trifluoromethylphenyl)-morpholin-4-ylmethyl]-ethyl ester hydrochloride]
8.5 nM	O=C(Nc1ccc(Cl)cc1)O[C@@H](CN1CCOC(c2ccc(F)c(C(F)(F)F)c2)C1)C(F)(F)F (stereo partly drawn) [Example 2, (4-Chlorophenyl)-carbamic acid (S)-2,2,2-trifluoro-1-[2-(4-fluoro-3-trifluoromethylphenyl)-morpholin-4-ylmethyl]-ethyl ester hydrochloride]
8.09 nM	O=C(Nc1ccc(Cl)cc1)O[C@@H](CN1CCO[C@H](c2cc(Cl)cc(Cl)c2)C1)C(F)(F)F [Example 45, (4-Chlorophenyl)carbamic acid (S)-1-[(R)-2-(3,5-dichlorophenyl)-morpholin-4-ylmethyl]-2,2,2-trifluoroethyl ester hydrochloride]
6.35 nM	O=C(Nc1ccc(Cl)c(F)c1)O[C@@H](CN1CCO[C@H](c2cccc(C(F)(F)F)c2)C1)C(F)(F)F [Example 13, (4-Chloro-3-fluorophenyl)-carbamic acid (S)-2,2,2-trifluoro-1-[(R)-2-(3-trifluoromethylphenyl)-morpholin-4-ylmethyl]-ethyl ester hydrochloride]
